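Results reflect a 48-hour exposure of cells in 96-well plates to compound at five concentrations. The concentration for full growth arrest is given as TGI.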

Some test systems named below: U251 CNS; T-47D breast; RPMI-8226 leukemia; OVCAR-5 ovarian; HOP-62 NSCLC; EKVX NSCLC; HS 578T breast; MDA-MB-435; UACC-257 melanoma; ACHN renal; MALME-3M melanoma; SK-OV-3 ovarian; LOX IMVI melanoma; SK-MEL-28 melanoma; K-562 leukemia; HOP-92 NSCLC.
Test in all cases: growth of human tumour cells (NCI), 48 h

Take `[O-]/N=N\c1on[n+](CCc2ccccc2)c1Cc1c(/N=N/[O-])on[n+]1CCc1ccccc1`: the TGI with U251 CNS is 52.7 µM; in the experiment with T-47D breast, more than 100 µM; in the experiment on RPMI-8226 leukemia, more than 100 µM; in the experiment with OVCAR-5 ovarian, more than 100 µM; in the experiment on HOP-62 NSCLC it was 48.3 µM; in the experiment with EKVX NSCLC, more than 100 µM. In addition, the TGI in the experiment with HS 578T breast was 62.2 µM; in the experiment on MDA-MB-435, more than 100 µM; in the experiment on UACC-257 melanoma it was more than 100 µM; in the experiment with ACHN renal, more than 100 µM; in the experiment with MALME-3M melanoma it was 66.6 µM; with SK-OV-3 ovarian, more than 100 µM. Moreover, the TGI was more than 100 µM in the experiment on LOX IMVI melanoma, more than 100 µM with SK-MEL-28 melanoma, 65 µM in the experiment with K-562 leukemia and 65.8 µM in the experiment on HOP-92 NSCLC.
With `CNC(=O)C1CCC(=O)N1CN(C(C)=O)c1ccccc1` (stereo not given), the TGI in the experiment with U251 CNS, with T-47D breast, in the experiment with RPMI-8226 leukemia, in the experiment with OVCAR-5 ovarian, in the experiment with HOP-62 NSCLC and in the experiment with EKVX NSCLC was more than 100 µM each time. The TGI with HS 578T breast, in the experiment on MDA-MB-435, with UACC-257 melanoma, with ACHN renal, in the experiment with MALME-3M melanoma and with SK-OV-3 ovarian was more than 100 µM each time. Also, the TGI in the experiment on LOX IMVI melanoma, in the experiment on SK-MEL-28 melanoma, with K-562 leukemia and in the experiment with HOP-92 NSCLC was more than 100 µM in each case.
As for `CC(=O)c1c2c(cc3c1CC1(C3)Cc3ccc4c(c3C1=O)CCC4)CCC2` (stereo not given), the TGI is more than 100 µM in the experiment on U251 CNS; more than 100 µM with T-47D breast; more than 100 µM with RPMI-8226 leukemia; more than 100 µM in the experiment on OVCAR-5 ovarian; more than 100 µM with HOP-62 NSCLC; 96 µM in the experiment with EKVX NSCLC. The TGI with HS 578T breast was more than 100 µM; with MDA-MB-435 it was 32.8 µM; in the experiment on UACC-257 melanoma it was 14.9 µM; in the experiment with ACHN renal, more than 100 µM; in the experiment with MALME-3M melanoma, more than 100 µM; in the experiment with SK-OV-3 ovarian it was more than 100 µM. The TGI was more than 100 µM in the experiment on LOX IMVI melanoma, more than 100 µM with SK-MEL-28 melanoma, more than 100 µM in the experiment with K-562 leukemia and 83.7 µM with HOP-92 NSCLC.
Take `COC(=O)c1ccc(-n2c(C)nc(=O)c(-c3ccccc3)c2C)cc1`: the TGI in the experiment with U251 CNS, in the experiment with T-47D breast, with RPMI-8226 leukemia, with OVCAR-5 ovarian, in the experiment with HOP-62 NSCLC and with EKVX NSCLC was more than 100 µM in each case. Besides, the TGI in the experiment with HS 578T breast, in the experiment with MDA-MB-435, with UACC-257 melanoma, with ACHN renal, in the experiment on MALME-3M melanoma and in the experiment with SK-OV-3 ovarian was more than 100 µM each time. For the same compound, the TGI in the experiment with LOX IMVI melanoma, in the experiment with SK-MEL-28 melanoma, with K-562 leukemia and in the experiment with HOP-92 NSCLC was more than 100 µM throughout.
Turning to `CCOC(=O)C(Cc1ccc2c(c1)CCC2)Cc1ccc2c(c1)CCC2`, the TGI in the experiment with U251 CNS, in the experiment with T-47D breast, in the experiment with RPMI-8226 leukemia, in the experiment on OVCAR-5 ovarian, in the experiment with HOP-62 NSCLC and in the experiment on EKVX NSCLC was more than 100 µM throughout. For the same compound, the TGI with HS 578T breast, in the experiment on MDA-MB-435, in the experiment with UACC-257 melanoma, in the experiment on ACHN renal, with MALME-3M melanoma and with SK-OV-3 ovarian was more than 100 µM throughout. Besides, the TGI with LOX IMVI melanoma was 47.8 µM; with SK-MEL-28 melanoma, more than 100 µM; in the experiment on K-562 leukemia, 85.7 µM; in the experiment on HOP-92 NSCLC, more than 100 µM.

The record behind these values is PubChem BioAssay (NCI).
